Assay results as given in PubChem BioAssay (NCI).
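Method: 48-hour compound exposure of cells in 96-well plates, five concentrations, linear interpolation of endpoints. TGI denotes the concentration required for complete inhibition of growth.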

Experiments:
Experiment in all cases: growth of human tumour cells (NCI), 48 h
786-0 renal = system: 786-0 renal
A498 renal = system: A498 renal
A549 NSCLC = system: A549 NSCLC
ACHN renal = system: ACHN renal
BT-549 breast = system: BT-549 breast
CAKI-1 renal = system: CAKI-1 renal
CCRF-CEM leukemia = system: CCRF-CEM leukemia
COLO 205 colon = system: COLO 205 colon
DLD-1 colon = system: DLD-1 colon
DMS 273 small cell lung = system: DMS 273 small cell lung
EKVX NSCLC = system: EKVX NSCLC
HCC-2998 colon = system: HCC-2998 colon
HCT-116 colon = system: HCT-116 colon
HCT-15 colon = system: HCT-15 colon
HL-60(TB) leukemia = system: HL-60(TB) leukemia
HOP-18 NSCLC = system: HOP-18 NSCLC
HOP-62 NSCLC = system: HOP-62 NSCLC
HOP-92 NSCLC = system: HOP-92 NSCLC
HS 578T breast = system: HS 578T breast
HT29 colon = system: HT29 colon
IGROV1 ovarian = system: IGROV1 ovarian
K-562 leukemia = system: K-562 leukemia
KM12 colon = system: KM12 colon
KM20L2 colon = system: KM20L2 colon
LOX IMVI melanoma = system: LOX IMVI melanoma
LXFL 529 NSCLC = system: LXFL 529 NSCLC
M14 melanoma = system: M14 melanoma
MALME-3M melanoma = system: MALME-3M melanoma
MDA-MB-231 breast = system: MDA-MB-231 breast
MDA-MB-435 = system: MDA-MB-435
MDA-N = system: MDA-N
MOLT-4 leukemia = system: MOLT-4 leukemia
NCI-H226 lung = system: NCI-H226 lung
NCI-H23 lung = system: NCI-H23 lung
NCI-H460 lung = system: NCI-H460 lung
NCI-H522 lung = system: NCI-H522 lung
NCI/ADR-RES ovarian = system: NCI/ADR-RES ovarian
OVCAR-3 ovarian = system: OVCAR-3 ovarian
OVCAR-4 ovarian = system: OVCAR-4 ovarian
OVCAR-5 ovarian = system: OVCAR-5 ovarian
OVCAR-8 ovarian = system: OVCAR-8 ovarian
PC-3 prostate = system: PC-3 prostate
RXF 393 renal = system: RXF 393 renal
SF-268 CNS = system: SF-268 CNS
SF-295 CNS = system: SF-295 CNS
SF-539 CNS = system: SF-539 CNS
SK-MEL-2 melanoma = system: SK-MEL-2 melanoma
SK-MEL-28 melanoma = system: SK-MEL-28 melanoma
SK-MEL-5 melanoma = system: SK-MEL-5 melanoma
SK-OV-3 ovarian = system: SK-OV-3 ovarian
SN12C renal = system: SN12C renal
SNB-19 CNS = system: SNB-19 CNS
SNB-75 CNS = system: SNB-75 CNS
SNB-78 CNS = system: SNB-78 CNS
SR leukemia = system: SR leukemia
SW-620 colon = system: SW-620 colon
TK-10 renal = system: TK-10 renal
U251 CNS = system: U251 CNS
UACC-257 melanoma = system: UACC-257 melanoma
UACC-62 melanoma = system: UACC-62 melanoma
UO-31 renal = system: UO-31 renal
XF 498 CNS = system: XF 498 CNS

O=C1c2ccsc2C(=O)c2sc(CO)cc21
TGI (786-0 renal): 855 nM
TGI (A498 renal): 792 nM
TGI (A549 NSCLC): 125 nM
TGI (ACHN renal): 238 nM
TGI (BT-549 breast): 35.2 nM
TGI (CAKI-1 renal): 9690 nM
TGI (CCRF-CEM leukemia): 1350 nM
TGI (COLO 205 colon): 1530 nM
TGI (DLD-1 colon): 326 nM
TGI (DMS 273 small cell lung): 115 nM
TGI (EKVX NSCLC): 2390 nM
TGI (HCC-2998 colon): 5330 nM
TGI (HCT-116 colon): 279 nM
TGI (HCT-15 colon): 102 nM
TGI (HL-60(TB) leukemia): 3720 nM
TGI (HOP-18 NSCLC): 113 nM
TGI (HOP-62 NSCLC): 325 nM
TGI (HOP-92 NSCLC): 994 nM
TGI (HS 578T breast): 191 nM
TGI (HT29 colon): 444 nM
TGI (IGROV1 ovarian): 1360 nM
TGI (K-562 leukemia): 2480 nM
TGI (KM12 colon): 3080 nM
TGI (KM20L2 colon): 352 nM
TGI (LOX IMVI melanoma): 49.1 nM
TGI (LXFL 529 NSCLC): 304 nM
TGI (M14 melanoma): < 15.4 nM
TGI (MALME-3M melanoma): 1210 nM
TGI (MDA-MB-231 breast): 480 nM
TGI (MDA-MB-435): < 17.8 nM
TGI (MDA-N): < 17.7 nM
TGI (MOLT-4 leukemia): > 100000 nM
TGI (NCI-H226 lung): 643 nM
TGI (NCI-H23 lung): 394 nM
TGI (NCI-H460 lung): 2170 nM
TGI (NCI-H522 lung): 259 nM
TGI (NCI/ADR-RES ovarian): 396 nM
TGI (OVCAR-3 ovarian): 2740 nM
TGI (OVCAR-4 ovarian): 310 nM
TGI (OVCAR-5 ovarian): 2120 nM
TGI (OVCAR-8 ovarian): 380 nM
TGI (PC-3 prostate): 1780 nM
TGI (RXF 393 renal): 1900 nM
TGI (SF-268 CNS): 2310 nM
TGI (SF-295 CNS): 951 nM
TGI (SF-539 CNS): 100 nM
TGI (SK-MEL-2 melanoma): 232 nM
TGI (SK-MEL-28 melanoma): 61.4 nM
TGI (SK-MEL-5 melanoma): 16.3 nM
TGI (SK-OV-3 ovarian): 2970 nM
TGI (SN12C renal): 81.8 nM
TGI (SNB-19 CNS): 218 nM
TGI (SNB-75 CNS): 104 nM
TGI (SNB-78 CNS): 978 nM
TGI (SR leukemia): > 10800 nM
TGI (SW-620 colon): 164 nM
TGI (TK-10 renal): 10100 nM
TGI (U251 CNS): 421 nM
TGI (UACC-257 melanoma): 99.3 nM
TGI (UACC-62 melanoma): 122 nM
TGI (UO-31 renal): 317 nM
TGI (XF 498 CNS): 1140 nM
